Entries after “also recorded” stand apart in the source; their conditions may differ.
Key:
[1] = tested on: mice with irradiation-induced anemia; experiment: Irradiation-induced anemia in mice, peripheral blood RBC counts and hematocrit; format: in vivo, mouse; settings: 10 mg/kg, 3 weeks, sub-lethally irradiated mice
Description: (§1) (FIG. 10A) SMER28 rescues RBC output in rps29^+/− zebrafish embryos. The level of hemoglobin in the yolk sac was visualized 40hpf with benzidine staining. Images are representative of the proportion of embryos indicated (of total counted). (FIG. 10B) Quantitation of SMER28 rescue for a range of 0.1-1 μM, with embryos grouped by high, medium, and low levels of hemoglobin staining. (FIG. 10C) Peripheral blood (PB) RBC counts and hematocrit in mice with irradiation-induced anemia. Mice were treated with the PEG400-based vehicle containing DMSO (VEH) (n=11), 1 mg/kg Dex (sodium-phosphate) (n=13), or 10 mg/kg SMER28 (n=9) for 3 weeks, bled, and assessed. Data are combined from 3 independent experiments. (FIG. 10D) Erythroid cells as proportion of the human graft in mice transplanted with DBA CD34-5F progenitors, and treated as in (FIG. 1c). (FIG. 10E) Levels of human engraftment in NSG mouse bone marrow (BM) transplanted with CB CD34^+ cells. Mice were treated with DMSO plus vehicle (VEH) (n=10), 1 mg/kg Dex (sodium-phosphate) (n=6), or 2 mg/kg SMER28 (n=11) for 4 weeks. (FIG. 10F) The proportion of erythroid, myeloid, and lymphoid (B cells) lineages within the human graft in vehicle- and SMER28-treated mice transplanted with CB CD34^+ cells. Only the effect on the erythroid lineage was significant. Data in FIGS. 10E-10G are pooled from 2 independent experiments. […]

[2] = tested on: K562 erythroleukemia cells transduced with shRPS19; experiment: Autophagy induction (p62, LC3-I, LC3-II protein levels) in K562 cells transduced with shRPS19; format: cell-based, human
Description: (§2) (FIG. 13A) Induction of autophagy by SMER28 (40 μM) monitored by protein levels of p62, LC3-I, and LC3-II after 24 hours. Cells were also treated with 5-FU (100 nM) to induce autophagy, or inhibitor of transcription actinomycin D (ActD; 100 nM). (FIG. 13B) Induction of autophagy by SMER28 (40 μM) monitored by protein levels of p62, LC3-I, and LC3-II after 24 hours treatment with or without lysosomal blockade with bafilomycin A (200 nM for 4 hours). Untreated samples are shown at higher exposure, to capture dynamic changes in the LC3-II levels. Rapamycin (200 nM) is a positive control. LC3-II levels relative to GAPDH are quantitated on the right. (FIG. 13C) Erythroid differentiation of CD34-5F cells transduced with shRNAs for luciferase (LUC) or ATG5±SMER28. Representative flow plots and quantitation showing the number of erythroid cells induced by SMER28 (10 μM) normalized to DMSO. 2 control luciferase shRNAs and 2 ATG5 shRNAs are included (knockdown efficiency in hematopoietic cells of 58% and 50%, respectively), each with 2 independent lines; p=0.005, 3 independent experiments. (FIG. 13D) Atg5 deficiency causes anemia in zebrafish. Wild-type zebrafish embryos were treated with 1.6 ng atg5 or missense morpholino, and hemoglobin staining was visualized with benzidine staining at 40 hpf with SMER28 (1 μM). Representative images (left), and quantitation (right) with embryos grouped by high, medium, and low levels of benzidine staining.
SMER28 was identified as an mTOR-independent inducer of autophagy, by synergizing with rapamycin to promote clearance of protein aggregates in models of neurodegenerative disease (Sarkar et al., 2007; Tian et al., 2011). Autophagy is a pro-survival pathway induced by a variety of stresses, such as nutrient limitation or protein aggregation. Autophagy is required for clearance of mitochondria during terminal erythroid maturation (Mortensen and Simon, 2010), but has not been linked with earlier stages of erythropoiesis. To determine if SMER28 modulates autophagy in erythroid cells, we interrogated the levels of p62 and LC3 in K562 erythroleukemia cells transduced with shRPS19. SMER28 reduced p62 and increased the levels of […] LC3-II isoform associated with autophagosomes (FIG. 13A). […] To measure autophagic flux, we monitored LC3-II levels after blocking lysosomal fusion with bafilomycin A. SMER28 increased LC3-II levels following lysosomal blockade, similarly to the mTOR inhibitor rapamycin (FIG. 13B).
Drug treatments. SMER28 was purchased from Tocris and diluted in 10 mM aliquots in DMSO. The final concentration for CD34-5F and CB CD34^+erythroid treatments was 0.2-10 μM as indicated in the text. The final concentration for K562 cell treatments was 20-40 μM. […]

[3] = tested on: rps29+/- zebrafish with atg5 knockdown; experiment: atg5 morpholino knockdown in rps29+/- zebrafish, hemoglobin staining; format: in vivo; settings: 1.6 ng atg5 morpholino; SMER28 1 μM
Description: FIGS. 11A-11C show effect of SMER28 on CD34+ progenitors. (FIG. 11A) Protein levels of LC3-I and LC3-II in control and SMER28 treated mice. GADPH is used as a loading control. […] (FIG. 11C) Atg5 morpholino treatment of rps29^+/− zebrafish.
as §2, with “2 control luciferase shRNAs and 2 ATG5 shRNAs are included (knockdown efficiency in hematopoietic cells of 58% and 50%, respectively), each with 2 independent lines; p=0.005, 3 independent experiments. (FIG. 13D) Atg5 deficiency causes anemia in zebrafish. Wild-type zebrafish embryos were treated with 1.6 ng atg5 or missense morpholino, and hemoglobin staining was visualized with benzidine staining at 40 hpf with SMER28 (1 μM).” left out, “staining. […]” for “staining.”

[4] = tested on: rps29+/- zebrafish embryos; experiment: Hemoglobin (benzidine) staining in rps29 mutant zebrafish embryos; format: in vivo
Description: as §1

Question: Which hematocrit vs vehicle ([1]; p=0.04) does the source give for `C=CCNc1ncnc2ccc(Br)cc12` [SMER28, 6-Bromo-N-2-propenyl-4-quinazolinam] here?
Answer: The hematocrit vs vehicle was “modestly elevated”.

Question: What about the “peripheral blood RBC counts vs vehicle” value ([1]; p=0.07) of the same compound?
Answer: The value was “modestly elevated”.

Question: And the “LC3-II levels following lysosomal blockade (autophagic flux)” value ([2]; SMER28 40 μM 24 hours, bafilomycin A 200 nM for 4 hours)?
Answer: Its value is “increased”.

Question: And the “levels of LC3-II isoform associated with autophagosomes” value ([2]; SMER28 40 μM, 24 hours)?
Answer: The value was “increased”.

Question: And the p62 protein level ([2]; SMER28 40 μM, 24 hours)?
Answer: Its p62 protein level is “reduced”.

Question: What about the “rescue of erythropoiesis after atg5 knockdown” value [3] of the same compound?
Answer: The value was “abolished”.

Question: And the “embryos showing high levels of hemoglobin” value ([4]; 1 μM, 40 hpf, vehicle-treated controls 20%, p<0.05)?
Answer: Its value is “Over 50%”.

Question: What about the “hemoglobin staining / RBC output in yolk sac” value ([4]; treated for 40 hpf, benzidine staining) of the same compound?
Answer: The value was “robust increase; also recorded: rescues”.
